In PubChem BioAssay (NCI):
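All cell lines were grown in 96-well plates and treated with compound for 48 hours. GI50: concentration for 50% inhibition of growth. At the TGI there is no net growth.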

Experiments:
Experiment in all cases: NCI tumour cell line growth inhibition, 48 h; in the data active = GI50 below about 0.43 µM; inactive = the rest
786-0 renal = test system: 786-0 renal
A498 renal = test system: A498 renal
A549 NSCLC = test system: A549 NSCLC
ACHN renal = test system: ACHN renal
BT-549 breast = test system: BT-549 breast
CAKI-1 renal = test system: CAKI-1 renal
CCRF-CEM leukemia = test system: CCRF-CEM leukemia
COLO 205 colon = test system: COLO 205 colon
DU-145 prostate = test system: DU-145 prostate
EKVX NSCLC = test system: EKVX NSCLC
HCT-116 colon = test system: HCT-116 colon
HCT-15 colon = test system: HCT-15 colon
HL-60(TB) leukemia = test system: HL-60(TB) leukemia
HOP-92 NSCLC = test system: HOP-92 NSCLC
HS 578T breast = test system: HS 578T breast
HT29 colon = test system: HT29 colon
IGROV1 ovarian = test system: IGROV1 ovarian
KM12 colon = test system: KM12 colon
LOX IMVI melanoma = test system: LOX IMVI melanoma
M14 melanoma = test system: M14 melanoma
MCF7 breast = test system: MCF7 breast
MDA-MB-231 breast = test system: MDA-MB-231 breast
MDA-MB-435 = test system: MDA-MB-435
MDA-N = test system: MDA-N
MOLT-4 leukemia = test system: MOLT-4 leukemia
NCI-H226 lung = test system: NCI-H226 lung
NCI-H23 lung = test system: NCI-H23 lung
NCI-H460 lung = test system: NCI-H460 lung
NCI-H522 lung = test system: NCI-H522 lung
NCI/ADR-RES ovarian = test system: NCI/ADR-RES ovarian
OVCAR-3 ovarian = test system: OVCAR-3 ovarian
OVCAR-4 ovarian = test system: OVCAR-4 ovarian
OVCAR-5 ovarian = test system: OVCAR-5 ovarian
OVCAR-8 ovarian = test system: OVCAR-8 ovarian
PC-3 prostate = test system: PC-3 prostate
RPMI-8226 leukemia = test system: RPMI-8226 leukemia
RXF 393 renal = test system: RXF 393 renal
SF-268 CNS = test system: SF-268 CNS
SF-295 CNS = test system: SF-295 CNS
SF-539 CNS = test system: SF-539 CNS
SK-MEL-2 melanoma = test system: SK-MEL-2 melanoma
SK-MEL-5 melanoma = test system: SK-MEL-5 melanoma
SK-OV-3 ovarian = test system: SK-OV-3 ovarian
SN12C renal = test system: SN12C renal
SNB-19 CNS = test system: SNB-19 CNS
SNB-75 CNS = test system: SNB-75 CNS
SR leukemia = test system: SR leukemia
SW-620 colon = test system: SW-620 colon
T-47D breast = test system: T-47D breast
TK-10 renal = test system: TK-10 renal
U251 CNS = test system: U251 CNS
UACC-257 melanoma = test system: UACC-257 melanoma
UACC-62 melanoma = test system: UACC-62 melanoma
UO-31 renal = test system: UO-31 renal
HOP-62 NSCLC = test system: HOP-62 NSCLC
K-562 leukemia = test system: K-562 leukemia
MALME-3M melanoma = test system: MALME-3M melanoma
SK-MEL-28 melanoma = test system: SK-MEL-28 melanoma

Cc1cc(O)cc2c1c(=O)c1ccccc1n2C
84.4 µM: TGI (SF-268 CNS)
> 100 µM: TGI (786-0 renal) | TGI (A498 renal) | TGI (A549 NSCLC) | TGI (ACHN renal) | TGI (BT-549 breast) | TGI (CAKI-1 renal) | TGI (CCRF-CEM leukemia) | TGI (COLO 205 colon) | TGI (DU-145 prostate) | TGI (EKVX NSCLC) | TGI (HCT-116 colon) | TGI (HCT-15 colon) | TGI (HL-60(TB) leukemia) | TGI (HS 578T breast) | TGI (HT29 colon) | TGI (IGROV1 ovarian) | TGI (KM12 colon) | TGI (LOX IMVI melanoma) | TGI (M14 melanoma) | TGI (MCF7 breast) | TGI (MDA-MB-231 breast) | TGI (MDA-MB-435) | TGI (MDA-N) | TGI (MOLT-4 leukemia) | TGI (NCI-H226 lung) | TGI (NCI-H23 lung) | TGI (NCI-H460 lung) | TGI (NCI-H522 lung) | TGI (NCI/ADR-RES ovarian) | TGI (OVCAR-3 ovarian) | TGI (OVCAR-4 ovarian) | TGI (OVCAR-5 ovarian) | TGI (OVCAR-8 ovarian) | TGI (PC-3 prostate) | TGI (RPMI-8226 leukemia) | TGI (RXF 393 renal) | TGI (SF-295 CNS) | TGI (SF-539 CNS) | TGI (SK-MEL-2 melanoma) | TGI (SK-MEL-5 melanoma) | TGI (SK-OV-3 ovarian) | TGI (SN12C renal) | TGI (SNB-19 CNS) | TGI (SNB-75 CNS) | TGI (SR leukemia) | TGI (SW-620 colon) | TGI (T-47D breast) | TGI (TK-10 renal) | TGI (U251 CNS) | TGI (UACC-257 melanoma) | TGI (UACC-62 melanoma) | TGI (UO-31 renal)
93.6 µM: TGI (HOP-92 NSCLC)

C1CC[N-]CC1.CC(=N\O)/C(C)=N/O.CC(=N\O)/C(C)=N/O.[CH2-]CCN1CCOCC1.[Co+2]
39.5 µM: TGI (MOLT-4 leukemia)
> 100 µM: TGI (786-0 renal) | TGI (A498 renal) | TGI (A549 NSCLC) | TGI (ACHN renal) | TGI (BT-549 breast) | TGI (CAKI-1 renal) | TGI (COLO 205 colon) | TGI (DU-145 prostate) | TGI (EKVX NSCLC) | TGI (HCT-116 colon) | TGI (HCT-15 colon) | TGI (HL-60(TB) leukemia) | TGI (HOP-62 NSCLC) | TGI (HOP-92 NSCLC) | TGI (HS 578T breast) | TGI (HT29 colon) | TGI (IGROV1 ovarian) | TGI (K-562 leukemia) | TGI (KM12 colon) | TGI (LOX IMVI melanoma) | TGI (M14 melanoma) | TGI (MALME-3M melanoma) | TGI (MCF7 breast) | TGI (MDA-MB-231 breast) | TGI (MDA-MB-435) | TGI (MDA-N) | TGI (NCI-H226 lung) | TGI (NCI-H460 lung) | TGI (NCI-H522 lung) | TGI (NCI/ADR-RES ovarian) | TGI (OVCAR-3 ovarian) | TGI (OVCAR-4 ovarian) | TGI (OVCAR-5 ovarian) | TGI (OVCAR-8 ovarian) | TGI (PC-3 prostate) | TGI (RPMI-8226 leukemia) | TGI (RXF 393 renal) | TGI (SF-268 CNS) | TGI (SF-295 CNS) | TGI (SF-539 CNS) | TGI (SK-MEL-2 melanoma) | TGI (SK-MEL-28 melanoma) | TGI (SK-MEL-5 melanoma) | TGI (SK-OV-3 ovarian) | TGI (SN12C renal) | TGI (SNB-19 CNS) | TGI (SNB-75 CNS) | TGI (SR leukemia) | TGI (SW-620 colon) | TGI (T-47D breast) | TGI (TK-10 renal) | TGI (U251 CNS) | TGI (UACC-257 melanoma) | TGI (UACC-62 melanoma) | TGI (UO-31 renal)
inactive: GI50 (786-0 renal) > 100 µM | GI50 (A498 renal) > 100 µM | GI50 (A549 NSCLC) > 100 µM | GI50 (ACHN renal) > 100 µM | GI50 (BT-549 breast) > 100 µM | GI50 (CAKI-1 renal) > 100 µM | GI50 (COLO 205 colon) > 100 µM | GI50 (DU-145 prostate) > 100 µM | GI50 (EKVX NSCLC) > 100 µM | GI50 (HCT-116 colon) > 100 µM | GI50 (HCT-15 colon) > 100 µM | GI50 (HL-60(TB) leukemia) > 100 µM | GI50 (HOP-62 NSCLC) > 100 µM | GI50 (HOP-92 NSCLC) > 100 µM | GI50 (HS 578T breast) > 100 µM | GI50 (HT29 colon) > 100 µM | GI50 (IGROV1 ovarian) > 100 µM | GI50 (K-562 leukemia) > 100 µM | GI50 (KM12 colon) > 100 µM | GI50 (LOX IMVI melanoma) > 100 µM | GI50 (M14 melanoma) > 100 µM | GI50 (MALME-3M melanoma) > 100 µM | GI50 (MCF7 breast) > 100 µM | GI50 (MDA-MB-231 breast) > 100 µM | GI50 (MDA-MB-435) > 100 µM | GI50 (MDA-N) > 100 µM | GI50 (MOLT-4 leukemia) 5.91 µM | GI50 (NCI-H226 lung) > 100 µM | GI50 (NCI-H460 lung) > 100 µM | GI50 (NCI-H522 lung) > 100 µM | GI50 (NCI/ADR-RES ovarian) > 100 µM | GI50 (OVCAR-3 ovarian) > 100 µM | GI50 (OVCAR-4 ovarian) > 100 µM | GI50 (OVCAR-5 ovarian) > 100 µM | GI50 (OVCAR-8 ovarian) > 100 µM | GI50 (PC-3 prostate) > 100 µM | GI50 (RPMI-8226 leukemia) > 100 µM | GI50 (RXF 393 renal) > 100 µM | GI50 (SF-268 CNS) > 100 µM | GI50 (SF-295 CNS) > 100 µM | GI50 (SF-539 CNS) > 100 µM | GI50 (SK-MEL-2 melanoma) > 100 µM | GI50 (SK-MEL-28 melanoma) > 100 µM | GI50 (SK-MEL-5 melanoma) > 100 µM | GI50 (SK-OV-3 ovarian) > 100 µM | GI50 (SN12C renal) > 100 µM | GI50 (SNB-19 CNS) > 100 µM | GI50 (SNB-75 CNS) > 100 µM | GI50 (SR leukemia) 6.1 µM | GI50 (SW-620 colon) > 100 µM | GI50 (T-47D breast) > 100 µM | GI50 (TK-10 renal) > 100 µM | GI50 (U251 CNS) > 100 µM | GI50 (UACC-257 melanoma) 98.1 µM | GI50 (UACC-62 melanoma) > 100 µM | GI50 (UO-31 renal) > 100 µM
